Patent US7598010B2, “Triarylamine dimer derivative having amorphous phase” (Orient Chemical Industries, Ltd., priority 2003, dated 2009)
Values after ≈ are worked out from the molar mass of the structure shown. Like-named read-outs stand apart in the source and are kept apart here.

Tests used:
[1] = Determination of the solubility in organic solvents; type: physicochemical; details: for Solubility (g/ml) DMF / Solubility (g/ml) THF / Solubility (g/ml) Chloroform / Solubility (g/ml) Dichloromethane / Solubility (g/ml) Xylene / solubility: 5 ml, added until saturation; for Solubility (g/ml) Xylene: solvent xylene; for solubility: organic solvent or mixture, thermodynamic from solid
Description: (Determination of the Solubility)
Respectively, 5 ml of the solvents of THF, DMF, xylene, chloroform and dichloromethane were measured and poured into 20 ml of tubular bottoms with screw caps. […] The solubility (g/ml) to the respective solvent was determined from the weight of the triarylamine dimer derivative added until saturation.

[2] = Differential scanning calorimetry (DSC), glass transition point; type: physicochemical; details: determined by DSC
Excerpt: (Differential Scanning Calorimetry (DSC))
The results of the glass transition point (Tg) determined by DSC of the triarylamine dimer derivatives obtained in Examples 1 to 6 are shown in Table 3.

[3] = chloroform, solvent chloroform, read-out: Solubility (g/ml) Chloroform
[4] = dichloromethane, solvent dichloromethane, read-out: Solubility (g/ml) Dichloromethane

SMILES	Solubility (g/ml) DMF ([1]; solvent DMF) [g/mL]	Solubility (g/ml) THF ([1]; solvent THF) [g/mL]	Solubility (g/ml) Chloroform ([1]; solvent chloroform) [g/mL]	Solubility (g/ml) Dichloromethane ([1]; solvent dichloromethane) [g/mL]	Solubility (g/ml) Xylene [1] [g/mL]	Glass Transition Point(Tg) [2] [Degrees C.]	solubility [1, 3] [g/mL]	solubility [1, 4] [g/mL]	Solubility in organic solvent (in words) [1]	Solubility compared with alpha-NPD (times higher) ([1]; organic solvents of Table 2)	solubility ([1]; DMF, solvent DMF, read-out: Solubility (g/ml) DMF) [g/mL]	solubility ([1]; THF, solvent THF, read-out: Solubility (g/ml) THF) [g/mL]
c1ccc(N(c2ccc(-c3ccc(N(c4ccccc4)c4ccc5ccccc5c4)cc3)cc2)c2ccc3ccccc3c2)cc1 [Comparative Example6, N,N′-diphenyl-N,N′-bis(2-naphthyl)-4,4′-diaminobiphenyl]	0.033 (≈ 56.1 mM)	0.270 (≈ 459 mM)	0.452 (≈ 768 mM)	0.226 (≈ 384 mM)	0.162 (≈ 275 mM)							
c1ccc(N(c2ccc(-c3ccc(N(c4ccccc4)c4cccc5ccccc45)cc3)cc2)c2cccc3ccccc23)cc1 [Example4, N,N′-diphenyl-N,N′-bis(1-naphthyl)-4,4′-diaminobiphenyl]	0.007 (≈ 11.9 mM)	0.028 (≈ 47.6 mM)			0.009 (≈ 15.3 mM)	98.8	0.043 (≈ 73 mM)	0.029 (≈ 49.3 mM)				
c1ccc(N(c2ccc(-c3ccc(N(c4ccccc4)c4ccc5ccccc5c4)cc3)cc2)c2ccc3ccccc3c2)cc1 [Comparative Example5, N,N′-diphenyl-N,N′-bis(2-naphthyl)-4,4′-diaminobiphenyl]	0.012 (≈ 20.4 mM)	0.235 (≈ 399 mM)	0.395 (≈ 671 mM)	0.195 (≈ 331 mM)	0.103 (≈ 175 mM)							
Cc1cccc(N(c2ccccc2)c2ccc(-c3ccc(N(c4ccccc4)c4cccc(C)c4)cc3)cc2)c1 [Example1, N,N′-diphenyl-N,N′-bis(3-tolyl)-4,4′-diaminobiphenyl]						63.2						
c1ccc(N(c2ccc(-c3ccc(N(c4ccccc4)c4cccc5ccccc45)cc3)cc2)c2cccc3ccccc23)cc1 [Comparative Example4, N,N′-diphenyl-N,N′-bis(1-naphthyl)-4,4′-diaminobiphenyl]	0.001 (≈ 1.7 mM)	0.009 (≈ 15.3 mM)	0.024 (≈ 40.8 mM)	0.021 (≈ 35.7 mM)	0.002 (≈ 3.4 mM)							
c1ccc(N(c2ccc(-c3ccc(N(c4ccccc4)c4ccc5ccccc5c4)cc3)cc2)c2ccc3ccccc3c2)cc1 [Example6, N,N′-diphenyl-N,N′-bis(2-naphthyl)-4,4′-diaminobiphenyl]		> 0.795				99.4						
c1ccc(N(c2ccc(-c3ccc(N(c4ccccc4)c4ccc5ccccc5c4)cc3)cc2)c2ccc3ccccc3c2)cc1 [Comparative Example7, N,N′-diphenyl-N,N′-bis(2-naphthyl)-4,4′-diaminobiphenyl]	0.028 (≈ 47.6 mM)	0.202 (≈ 343 mM)	0.368 (≈ 625 mM)	0.209 (≈ 355 mM)	0.155 (≈ 263 mM)							

The next lines start with the values.

Solubility (g/ml) DMF ([1]; solvent DMF) [g/mL]	Solubility (g/ml) THF ([1]; solvent THF) [g/mL]	Solubility (g/ml) Chloroform ([1]; solvent chloroform) [g/mL]	Solubility (g/ml) Dichloromethane ([1]; solvent dichloromethane) [g/mL]	Solubility (g/ml) Xylene [1] [g/mL]	Glass Transition Point(Tg) [2] [Degrees C.]	solubility [1, 3] [g/mL]	solubility [1, 4] [g/mL]	Solubility in organic solvent (in words) [1]	Solubility compared with alpha-NPD (times higher) ([1]; organic solvents of Table 2)	solubility ([1]; DMF, solvent DMF, read-out: Solubility (g/ml) DMF) [g/mL]	solubility ([1]; THF, solvent THF, read-out: Solubility (g/ml) THF) [g/mL]	SMILES
0.060 (≈ 116 mM)	0.732 (≈ 1420 mM)	0.892 (≈ 1730 mM)	0.696 (≈ 1350 mM)	0.334 (≈ 646 mM)	75.0							Cc1ccc(N(c2ccccc2)c2ccc(-c3ccc(N(c4ccccc4)c4ccc(C)cc4)cc3)cc2)cc1 [Example2, N,N′-diphenyl-N,N′-bis(4-tolyl)-4,4′-diaminobiphenyl]
0.301 (≈ 511 mM)	> 0.795		0.471 (≈ 800 mM)	0.558 (≈ 948 mM)	99.4	0.632 (≈ 1070 mM)		very high solubility	ten to several hundreds times higher			c1ccc(N(c2ccc(-c3ccc(N(c4ccccc4)c4ccc5ccccc5c4)cc3)cc2)c2ccc3ccccc3c2)cc1 [Example5, N,N′-diphenyl-N,N′-bis(2-naphthyl)-4,4′-diaminobiphenyl]
				0.152 (≈ 294 mM)		0.613 (≈ 1190 mM)	0.397 (≈ 768 mM)			0.036 (≈ 69.7 mM)	0.413 (≈ 799 mM)	Cc1ccc(N(c2ccccc2)c2ccc(-c3ccc(N(c4ccccc4)c4ccc(C)cc4)cc3)cc2)cc1 [Comparative Example2, N,N′-diphenyl-N,N′-bis(4-tolyl)-4,4′-diaminobiphenyl]
